The structures appear in SMILES notation.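 Interpolation was linear, between the two tested concentrations surrounding the appropriate level; five concentrations were tested over 48 hours in 96-well plates. At the TGI there is no net growth.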

For one experiment, the system named is HOP-92 NSCLC. The experiment can be described thus: NCI-60 cell line screen, 48 h.
In turn, `NC(N)=N/N=C/c1c(-c2ccc(Cl)cc2)nc2sccn12` displayed a TGI of 5.67 µM.

A further experiment concerns K-562 leukemia. The experiment can be described thus: NCI-60 cell line screen, 48 h.
Take `COC1=C(OC)C(=O)C(Cc2c(Cl)nc3sc(C)cn23)=C(C)C1=O`: the TGI was determined as 45.5 µM.
In turn, `C=CCOc1cccc(C2(O)c3ccccc3C3=NCCCN32)c1` (stereo unspecified) had a TGI of more than 35.4 µM.
Consider `COC(=O)C1(C(=O)OC)Cc2ccc(OC)cc2C2=C1C(=O)c1ccccc1C2=O`, for which the TGI came out at 4.37 µM.
On to `Cc1nc2ccccc2n1COC(Cn1ccnc1)c1ccc(Cl)cc1Cl` (stereo unspecified), for which the TGI is more than 100 µM.
Same read-out and setting: to `COC(=O)C1(CCC(C)=O)CCCCCC1=O` (stereo unspecified) belongs more than 100 µM; to `NC(N)=N/N=C/c1c(-c2ccc(Cl)cc2)nc2sccn12`, 14.3 µM.

The next experiment has as its system MCF7 breast. The experiment can be described thus: NCI-60 cell line screen, 48 h.
The compound `COC1=C(OC)C(=O)C(Cc2c(Cl)nc3sc(C)cn23)=C(C)C1=O` gave a TGI of 63.5 µM.
Still for that read-out and setting: to `C=CCOc1cccc(C2(O)c3ccccc3C3=NCCCN32)c1` (stereo unspecified) belongs 32 µM.
Consider `COC(=O)C1(C(=O)OC)Cc2ccc(OC)cc2C2=C1C(=O)c1ccccc1C2=O`, for which the TGI was 7.3 µM.
`Cc1nc2ccccc2n1COC(Cn1ccnc1)c1ccc(Cl)cc1Cl` (stereo unspecified) yielded a TGI of more than 100 µM.
`COC(=O)C1(CCC(C)=O)CCCCCC1=O` (stereo unspecified) gave a TGI of more than 100 µM.
The compound `NC(N)=N/N=C/c1c(-c2ccc(Cl)cc2)nc2sccn12` came in with a TGI of 3.48 µM.

The test system of the next experiment is NCI-H460 lung. The experiment can be described thus: NCI-60 cell line screen, 48 h.
In turn, `COC1=C(OC)C(=O)C(Cc2c(Cl)nc3sc(C)cn23)=C(C)C1=O` registered a TGI of 37.8 µM.
As for `C=CCOc1cccc(C2(O)c3ccccc3C3=NCCCN32)c1` (stereo unspecified), the TGI came to 36.7 µM.
On the same count and under the same terms, to `COC(=O)C1(C(=O)OC)Cc2ccc(OC)cc2C2=C1C(=O)c1ccccc1C2=O` belongs 33 µM; to `Cc1nc2ccccc2n1COC(Cn1ccnc1)c1ccc(Cl)cc1Cl` (stereo unspecified), 46.4 µM; to `COC(=O)C1(CCC(C)=O)CCCCCC1=O` (stereo unspecified), more than 100 µM.
For `NC(N)=N/N=C/c1c(-c2ccc(Cl)cc2)nc2sccn12`, the TGI turned out to be 3.53 µM.

Another experiment concerns NCI-H522 lung. The experiment can be described thus: NCI-60 cell line screen, 48 h.
Compound `COC1=C(OC)C(=O)C(Cc2c(Cl)nc3sc(C)cn23)=C(C)C1=O` gave a TGI of 30.2 µM.
`C=CCOc1cccc(C2(O)c3ccccc3C3=NCCCN32)c1` (stereo unspecified) came in with a TGI of 41.4 µM.
`COC(=O)C1(C(=O)OC)Cc2ccc(OC)cc2C2=C1C(=O)c1ccccc1C2=O` gave a TGI of 8.89 µM.
With `Cc1nc2ccccc2n1COC(Cn1ccnc1)c1ccc(Cl)cc1Cl` (stereo unspecified), the TGI was more than 100 µM.
Take `COC(=O)C1(CCC(C)=O)CCCCCC1=O` (stereo unspecified): the TGI was more than 100 µM.
For the compound `NC(N)=N/N=C/c1c(-c2ccc(Cl)cc2)nc2sccn12`, the TGI amounted to 3.19 µM.

The next experiment relates to NCI/ADR-RES ovarian. The experiment can be described thus: NCI-60 cell line screen, 48 h.
For `COC1=C(OC)C(=O)C(Cc2c(Cl)nc3sc(C)cn23)=C(C)C1=O`, the TGI worked out at 38.1 µM.
Regarding `C=CCOc1cccc(C2(O)c3ccccc3C3=NCCCN32)c1` (stereo unspecified), the TGI is more than 75.6 µM.
Turning to `COC(=O)C1(C(=O)OC)Cc2ccc(OC)cc2C2=C1C(=O)c1ccccc1C2=O`, the TGI was more than 28.4 µM.
On to `Cc1nc2ccccc2n1COC(Cn1ccnc1)c1ccc(Cl)cc1Cl` (stereo unspecified), for which the TGI was more than 100 µM.
Same read-out and setting: to `COC(=O)C1(CCC(C)=O)CCCCCC1=O` (stereo unspecified) belongs more than 100 µM.
`NC(N)=N/N=C/c1c(-c2ccc(Cl)cc2)nc2sccn12` showed a TGI of 23.3 µM.

Another experiment deals with OVCAR-8 ovarian. The experiment can be described thus: NCI-60 cell line screen, 48 h.
For `COC1=C(OC)C(=O)C(Cc2c(Cl)nc3sc(C)cn23)=C(C)C1=O`, the TGI stood at 41.2 µM.
`C=CCOc1cccc(C2(O)c3ccccc3C3=NCCCN32)c1` (stereo unspecified) had a TGI of more than 43.2 µM.
The compound `COC(=O)C1(C(=O)OC)Cc2ccc(OC)cc2C2=C1C(=O)c1ccccc1C2=O` gave a TGI of 9.27 µM.
On to `Cc1nc2ccccc2n1COC(Cn1ccnc1)c1ccc(Cl)cc1Cl` (stereo unspecified), for which the TGI was more than 100 µM.

For a further experiment, the system named is RXF 393 renal. The experiment can be described thus: NCI-60 cell line screen, 48 h.
Regarding `COC1=C(OC)C(=O)C(Cc2c(Cl)nc3sc(C)cn23)=C(C)C1=O`, the TGI is 41.7 µM.
Still for that read-out and setting: to `COC(=O)C1(CCC(C)=O)CCCCCC1=O` (stereo unspecified) belongs more than 100 µM; to `NC(N)=N/N=C/c1c(-c2ccc(Cl)cc2)nc2sccn12`, 2.95 µM.

The subject of the next experiment is SK-MEL-28 melanoma. The experiment can be described thus: NCI-60 cell line screen, 48 h.
Take `COC1=C(OC)C(=O)C(Cc2c(Cl)nc3sc(C)cn23)=C(C)C1=O`: the TGI was found to be 32.2 µM.
In the case of `C=CCOc1cccc(C2(O)c3ccccc3C3=NCCCN32)c1` (stereo unspecified), the TGI is 24.7 µM.
`COC(=O)C1(C(=O)OC)Cc2ccc(OC)cc2C2=C1C(=O)c1ccccc1C2=O` had a TGI of 31.4 µM.
Compound `Cc1nc2ccccc2n1COC(Cn1ccnc1)c1ccc(Cl)cc1Cl` (stereo unspecified) yielded a TGI of more than 100 µM.
Turning to `COC(=O)C1(CCC(C)=O)CCCCCC1=O` (stereo unspecified), the TGI was more than 100 µM.
On to `NC(N)=N/N=C/c1c(-c2ccc(Cl)cc2)nc2sccn12`, for which the TGI worked out at 3.44 µM.

The subject of a further experiment is SNB-19 CNS. The experiment can be described thus: NCI-60 cell line screen, 48 h.
On to `COC1=C(OC)C(=O)C(Cc2c(Cl)nc3sc(C)cn23)=C(C)C1=O`, for which the TGI came out at 41.3 µM.
On to `C=CCOc1cccc(C2(O)c3ccccc3C3=NCCCN32)c1` (stereo unspecified), for which the TGI was found to be 18.4 µM.
Turning to `COC(=O)C1(C(=O)OC)Cc2ccc(OC)cc2C2=C1C(=O)c1ccccc1C2=O`, the TGI stood at 33.4 µM.
The same measure, in the same setting: to `Cc1nc2ccccc2n1COC(Cn1ccnc1)c1ccc(Cl)cc1Cl` (stereo unspecified) belongs more than 100 µM; to `COC(=O)C1(CCC(C)=O)CCCCCC1=O` (stereo unspecified), more than 100 µM; to `NC(N)=N/N=C/c1c(-c2ccc(Cl)cc2)nc2sccn12`, 20.7 µM.

For another experiment, the system named is UACC-62 melanoma. The experiment can be described thus: NCI-60 cell line screen, 48 h.
In turn, `COC1=C(OC)C(=O)C(Cc2c(Cl)nc3sc(C)cn23)=C(C)C1=O` displayed a TGI of 25.6 µM.
The compound `C=CCOc1cccc(C2(O)c3ccccc3C3=NCCCN32)c1` (stereo unspecified) showed a TGI of 31.6 µM.
The same measure, in the same setting: to `COC(=O)C1(C(=O)OC)Cc2ccc(OC)cc2C2=C1C(=O)c1ccccc1C2=O` belongs 4.37 µM; to `Cc1nc2ccccc2n1COC(Cn1ccnc1)c1ccc(Cl)cc1Cl` (stereo unspecified), more than 100 µM; to `COC(=O)C1(CCC(C)=O)CCCCCC1=O` (stereo unspecified), more than 100 µM.
Turning to `NC(N)=N/N=C/c1c(-c2ccc(Cl)cc2)nc2sccn12`, the TGI came out at 3.39 µM.

These data come from PubChem BioAssay (NCI).
